Results on three compounds are retold here after US20030157712A1, “Methods for determining cell responses through EphB receptors” (priority 1997, published 2003).

The subject of assay [1] is human renal microvascular endothelial cells. As to the kind of experiment: Solid phase cell attachment assay (HRMEC). The class given is cell-based. The procedure: Solid phase cell attachment assays. Forty-eight-well plates (Falcon) were coated with a layer of nitrocellulose (Schleicher & Schuell) and allowed to air dry as described (47). Coated wells were incubated overnight at 4° C. with PBS containing matrix proteins at the indicated concentrations alone (no addition, NA) or in combination with dimeric EphrinB1/Fc. Two hours prior to assay, wells were washed twice then blocked at 37° C. with 1% BSA. Serum starved cells were harvested in 2 mM EDTA in PBS (HEK293) or recovered by trypsinization (HRMEC), washed twice in serum free medium containing 1% BSA, then plated at a density of 0.7-1×10^5 cells per well. After incubation at 37° C. for 1 hour (or as specified), unattached cells were dislodged by 5 brisk slaps of the plate on a horizontal surface. Wells were gently washed with PBS until cells were […] to albumin-coated wells. Adherent cells were fixed with 2% glutaraldehyde, stained with 0.5% crystal violet (in EtOH), and quantified by OD reading at 570 nm. In experiments using competitive peptides or blocking antibodies, cells were preincubated with the indicated peptides (100 μM) or antibodies (10 μg/ml) for 15 min at RT before plating. Results representative of three independent experiments are given as OD values and represent the mean of duplicate or triplicate wells±SEM. […]

Another assay concerns HRMEC. As to the kind of experiment: Endothelial assembly into capillary-like structures (HRMEC). Type of assay: cell-based, human. Particulars: HRMEC on Matrigel, two dimensional in vitro assay, 8 h. As to the method:
Endothelial assembly into capillary-like structures. Twelve well plates (Falcon) were coated with thin layers of Matrigel. HRMEC were plated at a density of 4×10^4 cells/well in DME containing 1% fetal bovine serum. Indicated agonists, control peptides, alone, or in combination with the EphB1/Fc antagonist (1000 ng ml^−1) (FIG. 5) were added at the time of plating. Cells were incubated at 37° C. for 8 h and photographed using phase microscopy (magnification 100×) (Diaphot-TMD, Nikon).

Turning to “GRGDSPK [RGD peptide, reference compound]”, the “support of the ephrin-B1 induced increase in endothelial attachment” value in assay [1] (peptide-coated 48-well plates) was “sufficient”.
With fibrinogen [reference compound], the “threshold surface density of adsorbed matrix protein required to promote attachment” value in assay [1] (nitrocellulose surface) was “approximately 1 ug/cm^2”.
Turning to `CCCCCCCCCCCCCC(=O)O[C@@H]1[C@@H](C)[C@@]2(O)[C@@H](C=C(CO)C[C@]3(O)C(=O)C(C)=C[C@@H]23)[C@@H]2C(C)(C)[C@]12OC(C)=O` [phorbol myristate acetate, reference compound], the endothelial capillary-like assembly result with HRMEC is recorded as “stimulated”.
